Drawing on US20250332178A1, “METHODS OF TREATING MYCOBACTERIAL INFECTIONS USING TETRACYCLINE COMPOUNDS” (priority 2018, published 2025), this text covers MIC for 37 compounds.

Converted amounts (≈) assume the structure as drawn. Read-outs that look alike come from different tables or passages of the source.

Common to all, as to type: cell-based
For one assay, the system named is M. chelonae. Description: MIC (CLSI broth dilution), RGM isolates. The settings on record: Mycobacteroides chelonae, read-out: MIC. In general terms: Dilution methods test growth across graded concentrations, often in twofold steps.
For a further assay, the system named is M. immunogenum group. Description: MIC (CLSI broth dilution), RGM isolates. The settings on record: M. immunogenum, read-out: MIC.
Assay [1] deals with H37Rv strain of Mycobacterium tuberculosis. Description: MIC against H37Rv strain. On the procedure: The purpose of this study was to test activity of selected tetracycline compounds against the H37Rv strain of Mycobacterium tuberculosis. Minimum inhibitory concentrations (MIC) of different tetracycline compounds against H37Rv strain were determined and are shown in Table 8.

The mark [2] stands for this setting: Mycobacterium tuberculosis, H37RV.
Setting [3] is: Mycobacterium tuberculosis, H37RV, read-out: MIC.

Broadly, the MIC is the least concentration at which growth counts as inhibited.

Take `NC[C@H]1O[C@H](O[C@H]2[C@H](O)[C@@H](O[C@H]3O[C@H](CO)[C@@H](O)[C@H](N)[C@H]3O)[C@H](N)C[C@@H]2N)[C@H](N)C[C@@H]1O` [TOB, tobramycin]: the minimum inhibitory concentration (MIC) in the assay on M. chelonae (isolate 18, M. chelonae) is at most 2 µg/mL; with M. chelonae (isolate 19, M. chelonae), at most 2 µg/mL; in the assay with M. chelonae (isolate 20, M. chelonae) it was at most 2 µg/mL; with M. chelonae (isolate 21, M. chelonae) it was at most 2 µg/mL; in the assay with M. chelonae (isolate 22, M. chelonae) it was at most 2 µg/mL; in the assay with M. immunogenum group (isolate 36, M. immunogenum group), 8 µg/mL (≈ 17.1 µM). Besides, the MIC was over 8 µg/mL in the assay on M. immunogenum group (isolate 37, M. immunogenum group) and over 8 µg/mL with M. immunogenum group (isolate 38, M. immunogenum group).
On to `CN(C)c1cc(CNC(CF)CF)c(O)c2c1C[C@H]1C[C@H]3[C@H](N(C)C)C(O)=C(C(N)=O)C(=O)[C@@]3(O)C(O)=C1C2=O` [Compound 79], for which 32 µg/mL (≈ 56.7 µM) was the least that counted as inhibitory in assay [1] (setting [2]) (MIC).
For `CN(C)c1cc(CN2CCCC2)c(O)c2c1C[C@H]1C[C@H]3C(N(C)C)C(O)=C(C(N)=O)C(=O)[C@@]3(O)C(O)=C1C2=O` (stereo partly drawn) [Compound 83], in assay [1] (setting [3]), the MIC stood at 32 µg/mL (≈ 59.2 µM).
The same measure, in the same setting: next, `CN(C)c1cc(CNC(=O)Nc2ccc3c(c2)OCO3)c(O)c2c1C[C@H]1C[C@H]3[C@H](N(C)C)C(O)=C(C(N)=O)C(=O)[C@@]3(O)C(O)=C1C2=O` [Compound 24]: over 32 µg/mL; `CCc1cc(CC)c2c(c1O)C(=O)C1=C(O)[C@]3(O)C(=O)C(C(N)=O)=C(O)[C@@H](N(C)C)[C@@H]3C[C@@H]1C2` [Compound 4]: over 32 µg/mL.
Same read-out and setting: next, `CCC(C)CNCc1cc(N(C)C)c2c(c1O)C(=O)C1=C(O)[C@]3(O)C(=O)C(C(N)=O)=C(O)[C@@H](N(C)C)[C@@H]3C[C@@H]1C2` (stereo partly drawn) [Compound 53]: 16 µg/mL (≈ 28.7 µM); `CCCCN(CCCC)Cc1cc(N(C)C)c2c(c1O)C(=O)C1=C(O)[C@]3(O)C(=O)C(C(N)=O)=C(O)C(N(C)C)[C@@H]3C[C@@H]1C2` (stereo partly drawn) [Compound 16]: over 32 µg/mL; `CC(C)CNCc1cc(N(C)C)c2c(c1O)C(=O)C1=C(O)[C@]3(O)C(=O)C(C(N)=O)=C(O)[C@H](N(C)C)[C@@H]3C[C@@H]1C2` [Compound 70]: 16 µg/mL (≈ 29.5 µM).
`Cc1cc(CNCc2cc(N(C)C)c3c(c2O)C(=O)C2=C(O)[C@]4(O)C(=O)C(C(N)=O)=C(O)[C@@H](N(C)C)[C@@H]4C[C@@H]2C3)oc1C` [Compound 41]: the MIC in assay [1] (setting [3]) was over 32 µg/mL.
The same measure, in the same setting: next, `CC(NCc1cc(N(C)C)c2c(c1O)C(=O)C1=C(O)[C@]3(O)C(=O)C(C(N)=O)=C(O)C(N(C)C)[C@@H]3C[C@@H]1C2)C(F)(F)F` (stereo partly drawn) [Compound 74]: over 32 µg/mL.
Regarding `CC(=O)c1ccc(NC(=O)NCc2cc(N(C)C)c3c(c2O)C(=O)C2=C(O)[C@]4(O)C(=O)C(C(N)=O)=C(O)[C@@H](N(C)C)[C@@H]4C[C@@H]2C3)cc1` [Compound 25], the minimum inhibitory concentration (MIC) in assay [1] (setting [3]) is over 32 µg/mL.
Same read-out and setting: next, `C[C@H]1c2ccc(CN3CCCCC3)c(O)c2C(=O)C2=C(O)[C@]3(O)C(=O)C(C(N)=O)=C(O)[C@@H](N(C)C)[C@@H]3[C@@H](O)[C@@H]21` [Compound 72]: 32 µg/mL (≈ 59.1 µM); `CC(=O)NCc1cc(N(C)C)c2c(c1O)C(=O)C1=C(O)[C@]3(O)C(=O)C(C(N)=O)=C(O)C(N(C)C)[C@@H]3C[C@@H]1C2` (stereo partly drawn) [Compound 3]: over 32 µg/mL.
For `CCNCC(=O)NCc1cc(N(C)C)c2c(c1O)C(=O)C1=C(O)[C@]3(O)C(=O)C(C(N)=O)=C(O)[C@H](N(C)C)[C@@H]3C[C@@H]1C2` [Compound 46], the MIC in assay [1] (setting [3]) is 32 µg/mL (≈ 56 µM).
For `CCc1cc(CNC(C)=O)c(O)c2c1C[C@H]1C[C@H]3C(N(C)C)C(O)=C(C(N)=O)C(=O)[C@@]3(O)C(O)=C1C2=O` (stereo partly drawn) [Compound 6], in assay [1] (setting [3]), the MIC was over 32 µg/mL.
For the compound `CC(CF)NCc1cc(N(C)C)c2c(c1O)C(=O)C1=C(O)[C@]3(O)C(=O)C(C(N)=O)=C(O)C(N(C)C)[C@@H]3C[C@@H]1C2` (stereo partly drawn) [Compound 42], the lowest concentration to inhibit growth in assay [1] (setting [2]) (MIC) was 32 µg/mL (≈ 58.5 µM).
On the same count and under the same terms, next, `CN(C)c1cc(CNC(=O)Oc2ccc(F)cc2)c(O)c2c1C[C@H]1C[C@H]3[C@H](N(C)C)C(O)=C(C(N)=O)C(=O)[C@@]3(O)C(O)=C1C2=O` [Compound 23]: 32 µg/mL (≈ 51.2 µM).
For `CN(C)c1cc(CNCC(C)(C)C)c(O)c2c1C[C@H]1C[C@H]3[C@H](N(C)C)C(O)=C(C(N)=O)C(=O)[C@@]3(O)C(O)=C1C2=O` [Compound 17], the MIC in assay [1] (setting [3]) was 32 µg/mL (≈ 57.5 µM).
The same measure, in the same setting: under `CN(C)C1C(O)=C(C(N)=O)C(=O)[C@@]2(O)C(O)=C3C(=O)c4c(O)c(CNCC(C)(C)C)cc(CNCC(C)(C)C)c4C[C@H]3C[C@@H]12` (stereo partly drawn) [Compound 64] stands 32 µg/mL (≈ 52.2 µM).
On the same count and under the same terms, under `C[C@H]1c2ccc(CNC(=O)c3ccccc3)c(O)c2C(=O)C2=C(O)[C@]3(O)C(=O)C(C(N)=O)=C(O)[C@@H](N(C)C)[C@@H]3[C@@H](O)[C@@H]21` [Compound 37] stands over 32 µg/mL; under `CC(N)CNCc1cc(N(C)C)c2c(c1O)C(=O)C1=C(O)[C@]3(O)C(=O)C(C(N)=O)=C(O)C(N(C)C)[C@@H]3C[C@@H]1C2` (stereo partly drawn) [Compound 51], over 32 µg/mL.
On the same count and under the same terms, under `CC(C)CNCc1ccc2c(c1O)C(=O)C1=C(O)[C@]3(O)C(=O)C(C(N)=O)=C(O)[C@@H](N(C)C)[C@@H]3[C@@H](O)[C@@H]1[C@H]2C` [Compound 34] stands 32 µg/mL (≈ 60.4 µM); under `CN(C)[C@H]1C(O)=C(C(N)=O)C(=O)[C@@]2(O)C(O)=C3C(=O)c4c(O)c(CNCC(C)(C)C)cc(-c5ccoc5)c4C[C@H]3C[C@@H]12` [Compound 73], over 32 µg/mL.
Take `CN(C)c1cc(CNC(=O)OCC(Cl)(Cl)Cl)c(O)c2c1C[C@H]1C[C@H]3[C@H](N(C)C)C(O)=C(C(N)=O)C(=O)[C@@]3(O)C(O)=C1C2=O` [Compound 22]: the MIC in assay [1] (setting [3]) was over 32 µg/mL.
Consider `CCCCCCOC(=O)NCc1cc(N(C)C)c2c(c1O)C(=O)C1=C(O)[C@]3(O)C(=O)C(C(N)=O)=C(O)[C@@H](N(C)C)[C@@H]3C[C@@H]1C2` [Compound 18], for which the MIC in assay [1] (setting [3]) was over 32 µg/mL.
As to `CN(C)c1cc(CN2CCOCC2)c(O)c2c1C[C@H]1C[C@H]3[C@H](N(C)C)C(O)=C(C(N)=O)C(=O)[C@@]3(O)C(O)=C1C2=O` [Compound 80], the MIC in assay [1] (setting [3]) amounted to 16 µg/mL (≈ 28.7 µM).
Still for that read-out and setting: under `CN(C)[C@@H]1C(O)=C(C(N)=O)C(=O)[C@@]2(O)C(O)=C3C(=O)c4c(ccc(CNCC(C)(C)C)c4O)C[C@H]3C[C@@H]12` [Compound 68] stands over 32 µg/mL; under `CN(C)c1ccc(-c2cc(CN)c(O)c3c2C[C@H]2C[C@H]4[C@@H](N(C)C)C(O)=C(C(N)=O)C(=O)[C@@]4(O)C(O)=C2C3=O)cc1` [Compound 28], over 32 µg/mL; under `CN(C)c1cc(CNC(=O)C(Cc2ccccc2)N(C)C)c(O)c2c1C[C@H]1C[C@H]3[C@@H](N(C)C)C(O)=C(C(N)=O)C(=O)[C@@]3(O)C(O)=C1C2=O` (stereo partly drawn) [Compound 48], over 32 µg/mL.
Still for that read-out and setting: next, `CC(CC(F)(F)F)NCc1cc(N(C)C)c2c(c1O)C(=O)C1=C(O)[C@]3(O)C(=O)C(C(N)=O)=C(O)[C@@H](N(C)C)[C@@H]3C[C@@H]1C2` (stereo partly drawn) [Compound 81]: 32 µg/mL (≈ 53.6 µM).
Same read-out and setting: next, `CN(C)c1cc(Cn2ccc(C=O)c2)c(O)c2c1C[C@H]1C[C@H]3[C@H](N(C)C)C(O)=C(C(N)=O)C(=O)[C@@]3(O)C(O)=C1C2=O` [Compound 69]: over 32 µg/mL; `CN(C)c1cc(CNCC2CCNCC2)c(O)c2c1C[C@H]1C[C@H]3[C@@H](N(C)C)C(O)=C(C(N)=O)C(=O)[C@@]3(O)C(O)=C1C2=O` [Compound 49]: over 32 µg/mL.
For `CN(C)[C@H]1C(O)=C(C(N)=O)C(=O)[C@@]2(O)C(O)=C3C(=O)c4c(O)c(CN)cc(-c5ccccc5)c4C[C@H]3C[C@@H]12` [Compound 32], the MIC in assay [1] (setting [3]) is over 32 µg/mL.
As to `CC(C)CNCc1cc(N(C)C)c2c(c1O)C(=O)C1=C(O)[C@]3(O)C(=O)C(C(N)=O)=C(O)[C@@H](N(C)C)[C@@H]3C[C@@H]1C2` [Compound 14], the figures for the MIC in assay [1] (H37Rv) and in assay [1] (setting [3]) were 16 µg/mL (≈ 29.5 µM) and over 32 µg/mL, respectively.
As to `C[C@H]1c2ccc(CNCC(C)(C)C)c(O)c2C(=O)C2=C(O)[C@]3(O)C(=O)C(C(N)=O)=C(O)[C@@H](N(C)C)[C@@H]3[C@@H](O)[C@@H]21` [Compound 33], the MIC in assay [1] (setting [3]) is over 32 µg/mL.
On to `CN(C)c1cc(CNC(=O)Nc2ccc(OC(F)(F)F)cc2)c(O)c2c1C[C@H]1C[C@H]3[C@H](N(C)C)C(O)=C(C(N)=O)C(=O)[C@@]3(O)C(O)=C1C2=O` [Compound 27], for which, in assay [1] (setting [3]), the MIC worked out at 8 µg/mL (≈ 11.6 µM).
Take `CC(C)COC(=O)NCc1cc(N(C)C)c2c(c1O)C(=O)C1=C(O)[C@]3(O)C(=O)C(C(N)=O)=C(O)[C@H](N(C)C)[C@@H]3C[C@@H]1C2` [Compound 11]: the MIC in assay [1] (setting [3]) is over 32 µg/mL.
